The values that follow come from US20250270209A1 (INTERLINE THERAPEUTICS, INC., priority 2022, published 2025).

Assay [1] addresses T1, wild type LRRK2 overexpressed in recombinant HEK-293T cells (Homo sapiens, UniProt Q5S007).
T1 construct: host or cells: HEK293T (transient transfection with pCMV-LRRK2 WT plasmid)
Briefly: pS935 LRRK2 Cell Assay (HTRF, phospho-LRRK2 Ser935). It counts as cell-based. The settings on record: LRRK2 Inhibition, Table 8, 2 hours compound incubation. In short, it runs like this:
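HEK-293T cells transiently transfected with wild-type LRRK2 for 24 h, plated overnight, then treated 2 h at 37° C with compound (top 10 μM, 3-fold, 9 doses, duplicates, 0.2% DMSO). Lysates probed overnight at 23° C by sandwich HTRF for pSer935; 665/615 nm ratio read.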
(In general: In TR-FRET formats the signal depends on donor and acceptor labels being close together.)

A further assay deals with LRRK2 wild type enzyme (Homo sapiens, UniProt Q5S007). In words: Biochemical Assay: LRRK2 TR-FRET (LanthaScreen) kinase assay with LRRKtide substrate. The following applies: LRRK2 Inhibition, Table 8. The procedure, abridged: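 Human wild-type LRRK2 (3 nM) preincubated 15 min with compound (11-point, 3-fold, top 10 μM), then reacted 120 min at 23 °C with 400 nM LRRKtide and 25 μM ATP, pH 8.0. Stopped with EDTA; Tb-anti-pLRRKtide TR-FRET read after 30 min.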
Chain of LRRK2 wild type enzyme (Q5S007 whole entry): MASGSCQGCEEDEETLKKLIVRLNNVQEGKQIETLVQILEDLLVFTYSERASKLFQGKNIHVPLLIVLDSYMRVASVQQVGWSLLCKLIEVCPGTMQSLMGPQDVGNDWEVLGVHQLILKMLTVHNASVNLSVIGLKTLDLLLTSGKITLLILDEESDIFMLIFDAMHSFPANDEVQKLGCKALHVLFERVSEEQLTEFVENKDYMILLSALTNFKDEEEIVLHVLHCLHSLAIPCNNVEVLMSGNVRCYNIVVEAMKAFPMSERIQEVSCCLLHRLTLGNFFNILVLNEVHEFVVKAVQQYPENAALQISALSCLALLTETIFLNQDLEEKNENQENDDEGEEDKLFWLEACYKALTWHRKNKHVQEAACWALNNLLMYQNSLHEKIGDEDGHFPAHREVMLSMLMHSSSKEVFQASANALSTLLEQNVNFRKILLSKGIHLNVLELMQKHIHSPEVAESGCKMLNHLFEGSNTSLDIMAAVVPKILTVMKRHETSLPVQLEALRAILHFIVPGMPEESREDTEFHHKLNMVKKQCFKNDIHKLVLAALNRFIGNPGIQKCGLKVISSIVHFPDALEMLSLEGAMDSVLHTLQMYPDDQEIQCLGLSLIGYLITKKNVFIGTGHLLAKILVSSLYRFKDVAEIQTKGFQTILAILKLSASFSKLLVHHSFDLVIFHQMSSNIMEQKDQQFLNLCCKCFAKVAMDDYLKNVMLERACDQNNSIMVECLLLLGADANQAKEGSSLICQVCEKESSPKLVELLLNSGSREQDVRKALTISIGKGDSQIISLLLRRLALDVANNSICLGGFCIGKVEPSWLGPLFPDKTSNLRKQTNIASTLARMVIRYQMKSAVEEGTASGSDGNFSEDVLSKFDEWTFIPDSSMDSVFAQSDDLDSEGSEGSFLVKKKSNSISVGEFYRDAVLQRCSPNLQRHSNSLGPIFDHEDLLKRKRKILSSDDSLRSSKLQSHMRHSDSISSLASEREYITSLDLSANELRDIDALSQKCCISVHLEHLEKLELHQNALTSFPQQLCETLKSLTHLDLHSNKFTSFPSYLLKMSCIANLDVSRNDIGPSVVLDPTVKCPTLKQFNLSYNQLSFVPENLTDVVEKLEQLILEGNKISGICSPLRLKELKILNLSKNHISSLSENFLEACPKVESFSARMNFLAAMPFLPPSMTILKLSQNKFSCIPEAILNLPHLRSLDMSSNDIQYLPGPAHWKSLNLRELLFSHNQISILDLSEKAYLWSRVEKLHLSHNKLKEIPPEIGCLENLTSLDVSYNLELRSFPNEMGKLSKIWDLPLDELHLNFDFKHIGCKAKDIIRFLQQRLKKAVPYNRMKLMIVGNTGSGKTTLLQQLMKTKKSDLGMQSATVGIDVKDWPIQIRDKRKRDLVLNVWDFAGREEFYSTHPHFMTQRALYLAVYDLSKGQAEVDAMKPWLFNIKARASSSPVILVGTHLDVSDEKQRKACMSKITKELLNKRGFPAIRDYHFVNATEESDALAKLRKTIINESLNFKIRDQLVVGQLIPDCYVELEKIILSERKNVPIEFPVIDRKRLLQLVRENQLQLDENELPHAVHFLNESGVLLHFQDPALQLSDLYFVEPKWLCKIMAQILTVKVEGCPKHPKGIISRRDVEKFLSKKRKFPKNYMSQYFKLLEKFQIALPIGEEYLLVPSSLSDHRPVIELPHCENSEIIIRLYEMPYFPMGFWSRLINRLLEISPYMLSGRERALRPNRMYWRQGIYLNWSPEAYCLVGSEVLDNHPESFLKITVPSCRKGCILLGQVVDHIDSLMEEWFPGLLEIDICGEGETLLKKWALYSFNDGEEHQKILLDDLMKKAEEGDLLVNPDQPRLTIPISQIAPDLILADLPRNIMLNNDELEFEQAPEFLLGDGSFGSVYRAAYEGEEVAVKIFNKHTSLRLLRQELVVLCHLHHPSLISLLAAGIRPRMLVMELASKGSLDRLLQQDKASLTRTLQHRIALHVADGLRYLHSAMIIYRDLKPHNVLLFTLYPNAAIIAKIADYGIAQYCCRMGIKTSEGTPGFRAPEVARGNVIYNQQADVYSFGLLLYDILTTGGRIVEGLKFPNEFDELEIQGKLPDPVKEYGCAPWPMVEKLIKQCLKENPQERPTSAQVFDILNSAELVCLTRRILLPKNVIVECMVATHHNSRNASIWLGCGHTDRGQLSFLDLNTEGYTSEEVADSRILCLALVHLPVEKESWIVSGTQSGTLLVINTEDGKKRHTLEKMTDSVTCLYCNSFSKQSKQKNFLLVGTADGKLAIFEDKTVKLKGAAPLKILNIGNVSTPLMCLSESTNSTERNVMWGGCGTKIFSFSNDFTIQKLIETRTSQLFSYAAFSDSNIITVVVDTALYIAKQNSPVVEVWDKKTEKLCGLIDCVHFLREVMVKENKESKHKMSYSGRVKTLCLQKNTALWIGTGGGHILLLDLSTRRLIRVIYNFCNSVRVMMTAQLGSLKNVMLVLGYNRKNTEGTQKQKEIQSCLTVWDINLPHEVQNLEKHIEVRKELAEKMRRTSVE

Each structure is given as a SMILES string.

T1 sequence (Q5S007 whole entry): as above

The IC50 is the concentration that gives 50% inhibition. In the case of `C[C@@H]1C[C@H](n2c(CC(=O)Nc3cn(C)ccc3=O)nc3cnc4ccc(C#N)cc4c32)CCO1` [Compound 234, N-(1-methyl-4-oxo-1,4-dihydro-3-pyridyl){3-[(2R,4R)-2-methyltetrahydro-2H-pyran-4-yl]-12-cyano-3,5,8-triazatricyclo[7.4.0.0^2,6]trideca-1,4,6,8,10,12-hexaen-4-yl}acetamide], the half-inhibitory concentration (IC50) amounted to 407 nM in assay [1] and 0.659 nM at LRRK2 wild type enzyme.

Take `C[C@@H]1C[C@H](n2c(CC(=O)N[C@H]3C[C@@H](OCc4ccccn4)C3)nc3cnc4ccc(C#N)cc4c32)CCO1` [Compound 162, 2-{8-cyano-1-[(2R,4R)-2-methyloxan-4-yl]-1H-imidazo[4,5-c]quinolin-2-yl}-N-[(1rs,3rs)-3-[(pyridin-2-yl)methoxy]cyclobutyl]acetamide]: the results for the IC50 (in assay [1]; against LRRK2 wild type enzyme) were 55.2 nM and 0.485 nM, respectively.

Turning to `C[C@@H]1C[C@H](n2c(CNC(=O)c3ccccn3)nc3cnc4ccc(C#N)cc4c32)CCO1` [Compound 19, N-({8-cyano-1-[(2R,4R)-2-methyloxan-4-yl]-1H-imidazo[4,5-c]quinolin-2-yl}methyl)pyridine-2-carboxamide], the IC50 in assay [1] is 22.9 nM; against LRRK2 wild type enzyme, 0.591 nM.

For the compound `C[C@@H]1C[C@H](n2c(CN3CCOCC3=O)nc3cnc4ccc(C#N)cc4c32)CCO1` [Compound 78, 1-[(2R,4R)-2-methyloxan-4-yl]-2-[(3-oxomorpholin-4-yl)methyl]-1H-imidazo[4,5-c]quinoline-8-carbonitrile], the IC50 came out at 1010 nM in assay [1] and 12.2 nM on LRRK2 wild type enzyme.

For `C[C@@H]1C[C@H](n2c([C@H]3CCN(S(C)(=O)=O)C3)nc3cnc4ccc(C#N)cc4c32)CCO1` [Compound 39, 2-[(3S)-1-methanesulfonylpyrrolidin-3-yl]-1-[(2R,4R)-2-methyloxan-4-yl]-1H-imidazo[4,5-c]quinoline-8-carbonitrile], the IC50 in assay [1] amounted to 894 nM; against LRRK2 wild type enzyme it was 5.27 nM.

As for `Cc1noc(NC(=O)Cc2nc3cnc4ccc(C#N)cc4c3n2[C@@H]2CCO[C@H](C)C2)c1C` [Compound 349, N-(3,4-dimethyl-5-isoxazolyl){3-[(2R,4R)-2-methyltetrahydro-2H-pyran-4-yl]-12-cyano-3,5,8-triazatricyclo[7.4.0.0^2,6]trideca-1(9),2(6),4,7,10,12-hexaen-4-yl}acetamide], the IC50 amounted to 7.43 nM in assay [1] and 0.547 nM on LRRK2 wild type enzyme.

As for `C[C@@H]1C[C@H](n2c(CC(=O)Nc3cnccn3)nc3cnc4ccc(Cl)cc4c32)CCO1` [Compound 371, N-2-pyrazinyl{3-[(2R,4R)-2-methyltetrahydro-2H-pyran-4-yl]-12-chloro-3,5,8-triazatricyclo[7.4.0.0^2,6]trideca-1(9),2(6),4,7,10,12-hexaen-4-yl}acetamide], the IC50 in assay [1] was found to be 5 nM; against LRRK2 wild type enzyme it was 1.13 nM.

As for `Cc1cnncc1NC(=O)Cc1nc2cnc3ccc(C#N)cc3c2n1[C@@H]1CCO[C@H](C)C1` [Compound 258, N-(5-methyl-4-pyridazinyl){3-[(2R,4R)-2-methyltetrahydro-2H-pyran-4-yl]-12-cyano-3,5,8-triazatricyclo[7.4.0.0^2,6]trideca-1,4,6,8,10,12-hexaen-4-yl}acetamide], the half-maximal inhibitory concentration (IC50) was 17.2 nM in assay [1] and 0.521 nM against LRRK2 wild type enzyme.

Regarding `CC(=O)N1CC[C@H](c2nc3cnc4ccc(C#N)cc4c3n2[C@@H]2CCO[C@H](C)C2)C1` [Compound 43, 2-[(3S)-1-acetylpyrrolidin-3-yl]-1-[(2R,4R)-2-methyloxan-4-yl]-1H-imidazo[4,5-c]quinoline-8-carbonitrile], the IC50 came to 1680 nM in assay [1] and 12.4 nM on LRRK2 wild type enzyme.

Turning to `C[C@@H]1C[C@H](n2c(CC(=O)NCCO)nc3cnc4ccc(Cl)cc4c32)CCO1` [Compound 163, 2-{8-chloro-1-[(2R,4R)-2-methyloxan-4-yl]-1H-imidazo[4,5-c]quinolin-2-yl}-N-(2-hydroxyethyl)acetamide], the IC50 in assay [1] is 43.8 nM; on LRRK2 wild type enzyme it was 0.676 nM.

Turning to `Cc1cncc(NC(=O)Cc2nc3cnc4ccc(C#N)cc4c3n2[C@@H]2CCO[C@H](C)C2)c1` [Compound 269, N-(5-methyl-3-pyridyl){3-[(2R,4R)-2-methyltetrahydro-2H-pyran-4-yl]-12-cyano-3,5,8-triazatricyclo[7.4.0.0^2,6]trideca-1,4,6,8,10,12-hexaen-4-yl}acetamide], the IC50 in assay [1] is 5.17 nM; against LRRK2 wild type enzyme it was 0.379 nM.

With `CC(=O)N1CC(c2nc3cnc4ccc(C#N)cc4c3n2[C@@H]2CCO[C@H](C)C2)C1` [Compound 63, 2-(1-acetylazetidin-3-yl)-1-[(2R,4R)-2-methyloxan-4-yl]-1H-imidazo[4,5-c]quinoline-8-carbonitrile], the results for the IC50 (in assay [1]; against LRRK2 wild type enzyme) were 1850 nM and 12.4 nM, respectively.

Take `C[C@@H]1C[C@H](n2c(CC(=O)NC3CCOc4cccnc43)nc3cnc4ccc(Cl)cc4c32)CCO1` (stereo partly drawn) [Compound 362, N-(3,4-dihydro-2H-1-oxa-5-azanaphth-4-yl){3-[(2R,4R)-2-methyltetrahydro-2H-pyran-4-yl]-12-chloro-3,5,8-triazatricyclo[7.4.0.0^2,6]trideca-1(9),2(6),4,7,10,12-hexaen-4-yl}acetamide]: the half-maximal inhibitory concentration (IC50) in assay [1] came out at 10.5 nM; at LRRK2 wild type enzyme, 0.553 nM.

For `C[C@@H]1C[C@H](n2c(CC(=O)Nc3cncnc3O)nc3cnc4ccc(C#N)cc4c32)CCO1` [Compound 211, N-(4-hydroxy-5-pyrimidinyl){3-[(2R,4R)-2-methyltetrahydro-2H-pyran-4-yl]-12-cyano-3,5,8-triazatricyclo[7.4.0.0^2,6]trideca-1,4,6,8,10,12-hexaen-4-yl}acetamide], the IC50 came out at 1690 nM in assay [1] and 0.484 nM against LRRK2 wild type enzyme.

As for `C[C@@H]1C[C@H](n2c(CC(=O)Nc3ccccn3)nc3cnc4ccc(C#N)cc4c32)CCO1` [Compound 155, 2-{8-cyano-1-[(2R,4R)-2-methyloxan-4-yl]-1H-imidazo[4,5-c]quinolin-2-yl}-N-(pyridin-2-yl)acetamide], the concentration for half-maximal inhibition (IC50) in assay [1] was 2.87 nM; at LRRK2 wild type enzyme, 0.441 nM.

Consider `C[C@@H]1C[C@H](n2c(CC(=O)Nc3cccnn3)nc3cnc4ccc(C#N)cc4c32)CCO1` [Compound 168, 2-{8-cyano-1-[(2R,4R)-2-methyloxan-4-yl]-1H-imidazo[4,5-c]quinolin-2-yl}-N-(pyridazin-3-yl)acetamide], for which the IC50 in assay [1] stood at 8.76 nM; at LRRK2 wild type enzyme, 0.375 nM.

With `C[C@@H]1C[C@H](n2c(CC(=O)Nc3cncn(C)c3=O)nc3cnc4ccc(C#N)cc4c32)CCO1` [Compound 223, N-(1-methyl-6-oxo-1,6-dihydro-5-pyrimidinyl){3-[(2R,4R)-2-methyltetahydro-2H-pyran-4-yl]-12-cyano-3,5,8-triazatricyclo[7.4.0.0^2,6]trideca-1,4,6,8,10,12-hexaen-4-yl}acetamide], the IC50 in assay [1] came out at 10.8 nM; on LRRK2 wild type enzyme, 0.316 nM.

In the case of `COc1nnccc1NC(=O)Cc1nc2cnc3ccc(C#N)cc3c2n1[C@@H]1CCO[C@H](C)C1` [Compound 222, N-(3-methoxy-4-pyridazinyl){3-[(2R,4R)-2-methyltetrahydro-2H-pyran-4-yl]-12-cyano-3,5,8-triazatricyclo[7.4.0.0^2,6]trideca-1,4,6,8,10,12-hexaen-4-yl}acetamide], the results for the IC50 (in assay [1]; against LRRK2 wild type enzyme) were 2.9 nM and 0.263 nM, respectively.

On to `Cc1onc(NC(=O)Cc2nc3cnc4ccc(C#N)cc4c3n2[C@@H]2CCO[C@H](C)C2)c1C` [Compound 356, N-(4,5-dimethyl-3-isoxazolyl){3-[(2R,4R)-2-methyltetrahydro-2H-pyran-4-yl]-12-cyano-3,5,8-triazatricyclo[7.4.0.0^2,6]trideca-1(9),2(6),4,7,10,12-hexaen-4-yl}acetamide], for which the IC50 amounted to 7.78 nM in assay [1] and 0.439 nM against LRRK2 wild type enzyme.

With `COc1nc(C2CC2)ncc1NC(=O)Cc1nc2cnc3ccc(C#N)cc3c2n1[C@@H]1CCO[C@H](C)C1` [Compound 255, N-(2-cyclopropyl-4-methoxy-5-pyrimidinyl){3-[(2R,4R)-2-methyltetrahydro-2H-pyran-4-yl]-12-cyano-3,5,8-triazatricyclo[7.4.0.0^2,6]trideca-1,4,6,8,10,12-hexaen-4-yl}acetamide], the figures for the IC50 (in assay [1]; at LRRK2 wild type enzyme) were 3.92 nM and 0.433 nM, respectively.

For the compound `C[C@@H]1C[C@H](n2c([C@H]3CCN(C(=O)C4CC4)C3)nc3cnc4ccc(C#N)cc4c32)CCO1` [Compound 41, 2-[(3S)-1-cyclopropanecarbonylpyrrolidin-3-yl]-1-[(2R,4R)-2-methyloxan-4-yl]-1H-imidazo[4,5-c]quinoline-8-carbonitrile], the 50% inhibitory concentration (IC50) in assay [1] was determined as 639 nM; at LRRK2 wild type enzyme it was 9.62 nM.

Take `C[C@@H]1C[C@H](n2c(CC(=O)NC3CCOCC3)nc3cnc4ccc(Cl)cc4c32)CCO1` [Compound 192, 2-{8-chloro-1-[(2R,4R)-2-methyloxan-4-yl]-1H-imidazo[4,5-c]quinolin-2-yl}-N-(oxan-4-yl)acetamide]: the results for the 50% inhibitory concentration (IC50) (in assay [1]; at LRRK2 wild type enzyme) were 13.3 nM and 0.385 nM, respectively.

For `C[C@@H]1C[C@H](n2c([C@H]3CCN(S(=O)(=O)C4CC4)C3)nc3cnc4ccc(C#N)cc4c32)CCO1` [Compound 25, 2-[(3S)-1-(cyclopropanesulfonyl)pyrrolidin-3-yl]-1-[(2R,4R)-2-methyloxan-4-yl]-1H-imidazo[4,5-c]quinoline-8-carbonitrile], the values for the IC50 (in assay [1]; against LRRK2 wild type enzyme) were 563 nM and 6.13 nM, respectively.

As for `CN1CC(n2c(C3CC(=O)N(CC4CC4)C3)nc3cnc4ccc(C#N)cc4c32)CCC1=O` (single isomer, unassigned) [Compound 139], the 50% inhibitory concentration (IC50) in assay [1] amounted to 1600 nM; on LRRK2 wild type enzyme, 56 nM.
